Laboratory results reported in ChEMBL document CHEMBL1156751, “Design, synthesis, and biological activity of bicyclic radester analogues as Hsp90 inhibitors” (Bioorg Med Chem Lett, 2009).

Legend:
MCF7 [1] = assay: Antiproliferative activity against human MCF7 cells; format: functional, cell-based
[2] = Inhibition of Hsp90 N-terminal assessed as Her2 degradation by Western blotting
[3] = Inhibition of Hsp90 N-terminal assessed as c-RAF degradation by Western blotting
[4] = Inhibition of Hsp90 N-terminal assessed as AKt degradation by Western blotting
MCF7 [5] = assay: Selectivity ratio of IC50 for human SKBr3 cells to IC50 for human MCF7 cells; format: functional
[6] = Inhibition of Hsp90 N-terminal assessed as increase in Hsp70 level
SK-BR-3 = assay: Antiproliferative activity against human SK-BR-3 cells; format: functional, cell-based

| IC50 (MCF7 [1]) [µM] | Activity [2] | Activity [3] | Activity [4] | Activity [6] | IC50 (SK-BR-3) [µM] | Structure (SMILES) | Ratio IC50 (MCF7 [5]) |
| --- | --- | --- | --- | --- | --- | --- | --- |
| 12.9 | Dose-dependent effect | Dose-dependent effect | Dose-dependent effect | Dose-dependent effect | 42.1 | COc1c(O)cc(NC=O)c(O)c1CCC1Cc2c(Cl)c(O)cc(O)c2C1=O (stereo not drawn) | 3 |
| 11.8 |  |  |  |  | 12.5 | COC1=C(C/C=C2/CCc3c(Cl)c(O)cc(O)c3C2=O)C(=O)C(NC=O)=CC1=O |  |
| 15.1 |  |  |  |  | 47.3 | COC1=C(CCC2Cc3c(Cl)c(O)cc(O)c3C2=O)C(=O)C(NC=O)=CC1=O (stereo not drawn) | 3 |
| 11.4 |  |  |  |  | 12.8 | COC1=C(CCC2CCc3c(Cl)c(O)cc(O)c3C2=O)C(=O)C(NC=O)=CC1=O (stereo not drawn) |  |
| 15.2 |  |  |  |  | 40.8 | COC1=C(C/C=C2/Cc3c(Cl)c(O)cc(O)c3C2=O)C(=O)C(NC=O)=CC1=O | 3 |
| 13.9 |  |  |  |  |  | COC1=C(CC(C)OC(=O)c2cc(Cl)c(O)cc2O)C(=O)C(NC=O)=CC1=O (stereo not drawn) [RADESTER] |  |
| 9.5 | Dose-dependent effect | Dose-dependent effect | Dose-dependent effect | Dose-dependent effect | 10.5 | COc1c(O)cc(NC=O)c(O)c1CCC1CCc2c(Cl)c(O)cc(O)c2C1=O (stereo not drawn) |  |
| 0.0161 |  |  |  |  | 0.0158 | COC1=C2C[C@@H](C)C[C@H](OC)[C@H](O)[C@@H](C)/C=C(\C)[C@H](OC(N)=O)[C@@H](OC)/C=C\C=C(/C)C(=O)NC(=CC1=O)C2=O [GELDANAMYCIN] |  |

| Structure (SMILES) | IC50 (MCF7 [1]) [µM] | Activity [2] | Activity [3] | Activity [4] | Activity [6] | IC50 (SK-BR-3) [µM] | Ratio IC50 (MCF7 [5]) |
| --- | --- | --- | --- | --- | --- | --- | --- |
| C[C@@H]1C[C@H]2O[C@@H]2/C=C\C=C\C(=O)Cc2c(Cl)c(O)cc(O)c2C(=O)O1 [RADICICOL] | 0.0477 |  |  |  |  | 0.0375 |  |
